Measurements reported in patent publication US20120258961A1, “4-AMINO-1,3-THIAZINE OR OXAZINE DERIVATIVE” (SHIONOGI & CO., LTD., priority 2009, published 2012).
pIC50: −log10 of the molar value.

Columns and labels:
[1] = BA test (oral absorption); assay type: in vivo; details: plasma; from AUCs of oral and intravenous administration groups, mouse or rats
Protocol: Materials and Methods for studies on oral absorption
(1) Animal: Mouse or Rats
(2) Breeding conditions: mouse or rats were allowed to freely take solid feed and sterilized tap water. (3) Dose and grouping: orally or intravenously administered at a predetermined dose; grouping was as follows (Dose depends on the compound) Oral administration: 1 to 30 mg/kg (n=2 to 3) Intravenous administration: 0.5 to 10 mg/kg (n=2 to 3) (4) Preparation of dosing solution: for oral administration, in a solution or a suspension state; for intravenous administration, in a solubilized state (5) Administration method: in oral administration, forcedly administer into ventriculus with oral probe; in intravenous administration, administer from caudal vein with a needle-equipped syringe (6) Evaluation items: blood was collected over time, and the plasma concentration of drug was measured by LC/MS/MS (7) Statistical analysis: regarding the transition of the plasma concentration, the area under the plasma concentration-time curve (AUC) was calculated by non-linear least squares program WinNonlin (Registered trade name), and the bioavailability (BA) was calculated from the AUCs of the oral administration group and intravenous administration group

[2] = test system: Neuroblastoma SH-SY5Y cells (SH/APPwt) with human wild-type β-APP excessively expressed; test: Measurement of β-amyloid (Aβ) production inhibitory effect in cell; assay type: cell-based; details: 24 hours, Amyloid β 1-40 HTRF in culture supernatant, read-out: Test example 2 IC50 (amount needed to inhibit Aβ production by 50%)
Protocol: Neuroblastoma SH-SY5Y cells (SH/APPwt) with human wild-type β-APP excessively expressed therein were prepared at 8×10^5 cells/mL, and 150 μl portions thereof were inoculated into each well of a 96-well culture plate (Falcon). The cells were cultured for 2 hours at 37° C. in a 5% gaseous carbon dioxide incubator. Then, a solution which had been preliminarily prepared by adding and suspending the test compound (DMSO (dimethyl sulfoxide) solution) so as to be 2 μl/50 μl medium was added to the cell sap. Namely, the final DMSO concentration was 1%, and the amount of the cell culture was 200 μl. After the incubation was performed for 24 hours from the addition of the test compound, 100 μl of the culture supernatant was collected from each fraction. The amount of the Aβ in each fraction was measured.
The Aβ amount was measured as follows. 10 μl of a homogeneous time resolved fluorescence (HTRF) measurement reagent (Amyloid β 1-40 peptide; IBA Molecular Holding, S.A.) and 10 μl of the culture supernatant were put into a 384-well half area microplate (black microplate, Costar) and mixed with each other, and then left standing overnight at 4° C. while the light was shielded. Then, the fluorescence intensity (excitation wavelength: 337 nm, measurement wavelength: 620 nm and 665 nm) was measured with a Wallac 1420 multilabel counter (Perkin Elmer life sciences). The Aβ amount was determined from the count rate at each measurement wavelength (10000×Count 665/Count 620), and the amount needed to inhibit Aβ production by 50% (IC50) was calculated from at least six different dosages.

Recombinant human BACE1 = molecular target: T1, Recombinant human BACE1 (Homo sapiens, UniProt P56817); test: Assay of BACE1 inhibiting activity; assay type: biochemical; details: Recombinant human BACE1 7.4 nmol/L, substrate peptide 18 nmol/L, pH 5.0, 30° C., 3 hours; read-out: Test example 1 IC50 (BACE1 inhibiting activity)
T1 construct: purchased R&D Systems
T1 sequence (P56817 46-501): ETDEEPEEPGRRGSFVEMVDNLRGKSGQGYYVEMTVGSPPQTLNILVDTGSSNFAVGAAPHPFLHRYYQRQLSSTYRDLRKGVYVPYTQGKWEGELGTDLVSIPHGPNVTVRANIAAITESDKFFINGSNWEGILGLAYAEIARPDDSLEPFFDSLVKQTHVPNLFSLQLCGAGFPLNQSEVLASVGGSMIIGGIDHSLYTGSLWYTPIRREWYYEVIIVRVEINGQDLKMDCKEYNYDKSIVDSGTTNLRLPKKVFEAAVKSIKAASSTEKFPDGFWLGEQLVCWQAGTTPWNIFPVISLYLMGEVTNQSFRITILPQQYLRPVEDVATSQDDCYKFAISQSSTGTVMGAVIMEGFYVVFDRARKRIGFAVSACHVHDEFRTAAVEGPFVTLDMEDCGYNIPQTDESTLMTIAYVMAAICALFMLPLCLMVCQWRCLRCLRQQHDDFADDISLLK
Protocol: 48.5 μL of substrate peptide solution (Biotin-XSEVNLDAEFRHDSGC-Eu: X=ε-amino-n-capronic acid, Eu=Europium cryptate) was added to each well of 96-hole half-area plate (a black plate: Costar), and after addition of 0.5 μl of the test compound (dissolved in […]) and 1 μl of Recombinant human BACE1 (R&D Systems), the reaction mixture was incubated at 30° C. for 3 hours. The substrate peptide was synthesized by reacting Cryptate TBPCOOH mono SMP (CIS bio international) with Biotin-XSEVNLDAEFRHDSGC (Peptide Institute, Inc.). The final concentrations of the substrate peptide and Recombinant human BACE1 were adjusted to 18 nmol/L and 7.4 nmol/L, respectively, and the reaction was performed in sodium acetate buffer (50 mmol/L sodium acetate, pH 5.0, 0.008% Triton X-100). After the incubation for reaction, 50 μl of 8.0 μg/ml Streptavidin-XL665 (CIS bio international) dissolved in phosphate buffer (150 mmol/L K2HPO4—KH2PO4, pH 7.0, 0.008% Triton X-100, 0.8 mol/L KF) was added to each well and left stand at 30° C. for an hour. After then, fluorescence intensity was measured (excitation wavelength: 320 nm, measuring wavelength: 620 nm and 665 nm) using Wallac 1420 multilabel counter (Perkin Elmer life sciences). Enzymatic activity was determined from counting ratio of each wavelength (10,000×Count 665/Count 620) and 50% inhibitory concentration (IC50) against the enzymatic activity was calculated.

[3] = molecular target: T2, CYP3A4 enzyme expressed in Escherichia coli (Homo sapiens, UniProt P08684); test: CYP3A4 fluorescent MBI test; assay type: in vitro ADME; details: substrate 7-BFC
T2 construct: host or cells: Escherichia coli
T2 sequence (P08684 whole entry): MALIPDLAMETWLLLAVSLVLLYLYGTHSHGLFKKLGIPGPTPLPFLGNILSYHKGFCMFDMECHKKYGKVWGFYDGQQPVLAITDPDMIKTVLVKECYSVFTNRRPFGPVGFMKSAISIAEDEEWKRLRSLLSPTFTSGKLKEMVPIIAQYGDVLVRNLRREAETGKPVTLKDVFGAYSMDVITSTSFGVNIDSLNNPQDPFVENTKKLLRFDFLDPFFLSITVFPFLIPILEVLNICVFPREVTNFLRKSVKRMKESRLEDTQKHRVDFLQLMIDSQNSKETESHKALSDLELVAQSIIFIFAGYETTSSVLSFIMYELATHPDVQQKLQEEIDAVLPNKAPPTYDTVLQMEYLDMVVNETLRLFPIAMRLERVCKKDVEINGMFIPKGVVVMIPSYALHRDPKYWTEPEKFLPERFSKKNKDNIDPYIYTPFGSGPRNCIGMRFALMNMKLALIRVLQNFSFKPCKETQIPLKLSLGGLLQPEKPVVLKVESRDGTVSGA
Protocol: The CYP3A4 fluorescent MBI test is a test of investigating enhancement of CYP3A4 inhibition of a compound by a metabolism reaction, and the test was performed using, as CYP3A4 enzyme expressed in Escherichia coli and employing, as an index, a reaction in which 7-benzyloxytrifluoromethylchmarin (7-BFC) is debenzylated by the CYP3A4 enzyme to produce a metabolite, 7-hydroxytrifluoromethylchmarin (HFC) emitting fluorescent light.
The reaction conditions were as follows: substrate, 5.6 μmol/L 7-BFC; pre-reaction time, 0 or […]; reaction time, 15 minutes; reaction temperature, 25° C. […]
An enzyme in a K-Pi buffer (pH 7.4) and a test drug solution as a pre-reaction solution were added to a 96-well plate at the composition of the pre-reaction, a part of it was transferred to another 96-well plate so that it was 1/10 diluted by a substrate in a K-Pi buffer, NADPH as a co-factor was added to initiate a reaction as an index (without preincubation) and, after a predetermined time of a reaction, acetonitrile/0.5 mol/L Tris(trishydroxyaminomethane)=4/1 was added to stop the reaction. […] For the plate on which each index reaction had been performed, a fluorescent value of 7-HFC which is a metabolite was measured with a fluorescent plate reader. […]

[4] = Solubility test (Test Example 7(1)); assay type: physicochemical; details: aqueous buffer, kinetic from dmso stock; medium (JP-I, JP-II), 2% DMSO solution, after 4 hours; read-out: Solubility assessed by 3 stages from turbidity
Protocol: A 2-fold dilution series (12 points) of a 10 mM solution of a test compound in DMSO was added to a medium (JP-I, JP-II) (2%), and solubility was assessed by 3 stages (High; >40 μM, Medium; 3-40 μM, Low; <3 μM) from a turbidity after 4 hours (crystallization information).

[5] = Brain distribution studies; assay type: in vivo; details: rat, intravenous 0.5 mg/mL/kg, 30 minutes later, read-out: Brain Kp value (area ratio brain/plasma)
Protocol: Intravenous administration is carried out to a rat by 0.5 mg/mL/kg dosage of a text compound. […] Then, the brain was extracted and 20-25% of homogenate thereof was prepared with distilled water. On the other hand, the obtained blood is used as plasma after centrifuging. Then, to the brain sample was added the control plasma at 1:1. To the plasma samples was added the control brains at 1:1. Each sample was measured using LC/MS/MS. The obtained area ratio (a brain/plasma) was used for the brain Kp value.

[6] = test system: CYP1A2, CYP2C9, CYP2C19, CYP2D6, CYP3A4; test: in vitro; details: human, microsomes
From the text: Using commercially available pooled human hepatic microsome, and employing, as markers, O-deethylation of 7-ethoxyresorufin (CYP1A2), methyl-hydroxylation of tolbutamide (CYP2C9), 4′-hydroxylation of mephenyloin (CYP2C19), O-demethylation of dextromethorphan (CYP2D6) and hydroxylation of terfenadine (CYP3A4) as typical substrate metabolism reactions of human main five CYP enzyme forms (CYP1A2, 2C9, 2C19, 2D6, 3A4), an inhibitory degree of each metabolite production amount by a test compound was assessed. […]
Each five kinds of substrates, human hepatic microsome, and a test drug in 50 mmol/L Hepes buffer as a reaction solution was added to a 96-well plate at the composition as described above, NADPH, as a cofactor was added to initiate metabolism reactions as markers and, after the incubation at 37° C. for 15 minutes, a methanol/acetonitrile=1/1 (v/v) solution was added to stop the reaction. After the centrifugation at 3000 rpm for 15 minutes, resorufin (CYP1A2 metabolite) in the supernatant was quantified by a fluorescent multilabel counter and tributamide hydroxide (CYP2CP metabolite), mephenyloin 4′ hydroxide (CYP2C19 metabolite), dextromethorphan (CYP2D6 metabolite), and terfenadine alcohol (CYP3A4 metabolite) were quantified by LC/MS/MS. […]

[7] = Metabolism stability test; assay type: in vitro ADME; details: human liver microsomes 0.5 mg protein/mL, 1 mmol/L NADPH, 37° C., 30 minutes
Protocol: Using a commercially available pooled human hepatic microsomes, a test compound was reacted for a constant time, a remaining rate was calculated by comparing a reacted sample and an unreacted sample, thereby, a degree of metabolism in liver was assessed.
A reaction was performed (oxidative reaction) at 37° C. for 0 minute or 30 minutes in the presence of 1 mmol/L NADPH in 0.2 mL of a buffer (50 mmol/L Tris-HCl pH 7.4, 150 mmol/L potassium chloride, 10 mmol/L magnesium chloride) containing 0.5 mg protein/mL of human liver microsomes. After the reaction, 50 μL of the reaction solution was added to 100 μL of a methanol/acetonitrile=1/1 (v/v), mixed and centrifuged at 3000 rpm for 15 minutes. The test compound in the supernatant was quantified by LC/MS/MS, and a remaining amount of the test compound after the reaction was calculated, letting a compound amount at 0 minute reaction time to be 100%.

Structure (SMILES) | pIC50 [2] | other results
Cc1cnc(C(=O)Nc2ccc(F)c(C3(C)N=C(N)CCS3)c2)cn1 (stereo not shown) [Compound I-1] | ≥ 6.00 | bioavailability [1]: 93.4%
CC1(c2cc(NC(=O)c3ncc(Cl)cc3Cl)ccc2F)N=C(N)CCS1 (stereo not shown) [Compound I-2] | > 9.00 | pIC50 (Recombinant human BACE1): 8.00
CC1(c2cc(NC(=O)c3ccc(C#N)cn3)ccc2F)N=C(N)c2ccccc2S1 (stereo not shown) [Compound I-3] | ≥ 6.00 | 
CC1(c2cc(NC(=O)c3ccc(C#N)cn3)ccc2F)N=C(N)c2ccccc2O1 (stereo not shown) [Compound I-4] | ≥ 6.00 | CYP3A4 fluorescent MBI: difference between IC50 values without and with preincubation [3]: (−) (when the difference is 3 μM or less, this was defined as (−))
CC1(c2cc(NC(=O)c3ccc(C#N)cn3)ccc2F)N=C(N)c2cc(Cl)ccc2O1 (stereo not shown) [Compound I-5] | ≥ 6.00 | 
CC1(c2cc(NC(=O)c3ccc(C#N)cn3)ccc2F)N=C(N)CCS1 (stereo not shown) [Compound I-6] | ≥ 6.00 | 
Cc1cnc(C(=O)Nc2ccc(F)c(C3(C)N=C(N)c4ccccc4S3)c2)cn1 (stereo not shown) [Compound I-7] | ≥ 6.00 | 
COc1cnc(C(=O)Nc2ccc(F)c(C3(C)N=C(N)c4ccccc4S3)c2)cn1 (stereo not shown) [Compound I-8] | 7.72 | pIC50 (Recombinant human BACE1): 7.18
CC1(c2cc(NC(=O)c3ccc(C#N)cn3)ccc2F)N=C(N)c2cc(N)ccc2O1 (stereo not shown) [Compound I-9] | ≥ 6.00 | solubility at 4 h [4]: > 40 µM
CC1(c2cc(NC(=O)c3ccc(C#N)cn3)ccc2F)N=C(N)c2ccc(N)cc2O1 (stereo not shown) [Compound I-10] | ≥ 6.00 | 
CC1(c2cc(NC(=O)c3ccc(C#N)cn3)ccc2F)N=C(N)c2cc(F)ccc2O1 (stereo not shown) [Compound I-11] | ≥ 6.00 | Kp at 0.5 h [5]: 5.8
CC1(c2cc(NC(=O)c3ccc(C#N)cn3)ccc2F)N=C(N)c2ccc(F)cc2O1 (stereo not shown) [Compound I-12] | 7.82 | pIC50 (Recombinant human BACE1): 7.21
Cc1cnc(C(=O)Nc2ccc(F)c(C3(C)N=C(N)CCS3(=O)=O)c2)cn1 (stereo not shown) [Compound I-19] | ≥ 6.00 | IC50 at 15 min [6]: > 17000 nM; Remaining amount of the test compound after the reaction (metabolism stability) [7]: 97%
